Molecules are shown by their SMILES.

T1 sequence (Q00961 whole entry): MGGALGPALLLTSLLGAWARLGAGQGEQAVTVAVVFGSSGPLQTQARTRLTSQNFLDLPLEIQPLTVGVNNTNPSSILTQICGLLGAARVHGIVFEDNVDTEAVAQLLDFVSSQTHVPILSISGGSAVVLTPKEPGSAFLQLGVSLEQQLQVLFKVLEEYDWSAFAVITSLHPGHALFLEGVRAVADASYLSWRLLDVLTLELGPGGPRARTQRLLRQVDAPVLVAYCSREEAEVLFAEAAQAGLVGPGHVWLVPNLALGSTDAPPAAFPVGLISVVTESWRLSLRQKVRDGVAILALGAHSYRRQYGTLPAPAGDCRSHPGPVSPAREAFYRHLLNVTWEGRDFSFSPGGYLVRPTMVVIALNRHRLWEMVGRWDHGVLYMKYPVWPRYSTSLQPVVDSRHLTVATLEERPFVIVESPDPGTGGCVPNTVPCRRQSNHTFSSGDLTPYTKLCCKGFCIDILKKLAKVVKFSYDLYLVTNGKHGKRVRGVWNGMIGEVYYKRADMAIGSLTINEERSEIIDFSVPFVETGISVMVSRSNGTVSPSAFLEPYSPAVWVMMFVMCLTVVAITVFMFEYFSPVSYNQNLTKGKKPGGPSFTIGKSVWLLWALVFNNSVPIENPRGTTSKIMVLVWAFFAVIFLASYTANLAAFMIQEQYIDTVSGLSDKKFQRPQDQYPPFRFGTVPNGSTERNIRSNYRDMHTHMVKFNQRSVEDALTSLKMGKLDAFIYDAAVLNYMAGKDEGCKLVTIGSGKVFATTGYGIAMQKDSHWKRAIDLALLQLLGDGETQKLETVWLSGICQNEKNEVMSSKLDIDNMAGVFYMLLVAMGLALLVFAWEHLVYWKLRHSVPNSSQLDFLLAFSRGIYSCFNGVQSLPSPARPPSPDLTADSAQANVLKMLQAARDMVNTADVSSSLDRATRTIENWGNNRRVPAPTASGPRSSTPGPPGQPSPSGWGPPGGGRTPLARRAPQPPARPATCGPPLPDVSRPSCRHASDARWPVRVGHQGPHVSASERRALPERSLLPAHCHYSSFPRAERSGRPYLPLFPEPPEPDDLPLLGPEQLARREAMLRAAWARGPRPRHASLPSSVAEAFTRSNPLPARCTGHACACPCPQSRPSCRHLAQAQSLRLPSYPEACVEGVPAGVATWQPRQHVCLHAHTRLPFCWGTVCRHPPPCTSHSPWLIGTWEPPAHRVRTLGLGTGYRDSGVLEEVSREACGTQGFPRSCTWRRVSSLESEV

One assay addresses T1, Glutamate receptor ionotropic, NMDA 2C (Rattus norvegicus, UniProt Q00961). Briefly: Inhibition activity against binding of phencyclidine receptor was determined by the displacement of [3H]-TCP of whole rat brain minus cerebellum. The class given is tissue-based. A general note: In a radioligand displacement assay an active substance lowers the binding of a labelled ligand.
Usually IC50 stands for the point on the concentration scale where inhibition reaches its midpoint. Read a low IC50 as inhibition by little substance. In turn, `c1ccc(C2(N3CCCCC3)CCCCC2)cc1` [PHENCYCLIDINE] registered an IC50 of 600 nM.

In the next assay the target is T1, Glutamate receptor ionotropic, NMDA 2C. Briefly: Binding affinity against phencyclidine receptor was determined by the displacement of [3H]TCP of whole rat brain minus cerebellum. The assay is classed as tissue-based.
By Ki is commonly meant the dissociation constant of the complex between target and ligand, obtained from inhibition or displacement. Read a high Ki as weaker binding. `CC1CCCN(C2(c3ccccc3)CCCCC2)C1` (stereo in doubt; (-)): the affinity corresponds to a Ki of 2150 nM.
Still for that read-out and setting: the result for `C[C@@H]1CCC[C@@](c2ccccc2)(N2CCCCC2)C1` reads 6800 nM; that for `C[C@@H]1CCC[C@](c2ccccc2)(N2CCCCC2)C1`, 820 nM; that for `CC1CCCN(C2(c3ccccc3)CCCCC2)C1` (stereo in doubt; (+)), 60 nM.
The same measure, in the same setting: the result for `C[C@H]1CCC[C@](c2ccccc2)(N2CCCCC2)C1` reads 170 nM.
Still for that read-out and setting: the result for `c1ccc(C2(N3CCCCC3)CCCCC2)cc1` [PHENCYCLIDINE] reads 60 nM; that for `C[C@H]1CCC[C@@](c2ccccc2)(N2CCCCC2)C1`, 3300 nM.

These data come from ChEMBL document CHEMBL1124274, “Synthesis, pharmacological action, and receptor binding affinity of the enantiomeric 1-(1-phenyl-3-methylcyclohexyl)piperidines” (J Med Chem, 1988).
